Source: patent US11891359B2, “Prenylated psilocybin derivatives and methods of using” (ENVERIC B[…] INC., priority 2021, dated 2024)

Columns and labels:
[1] = target: T1, 5-HT1A receptor (Homo sapiens, UniProt P08908); assay: cAMP-Glo assay in +5-HT1A cells (CHO-K1/5-HT1A/Gα15) with 4 μM forskolin; format: cell-based; details: for cAMP / luminescence response to varying dosage of test molecule: +5HT1A cell cultures, fixed 4 μM forskolin, FIGS. 14H-14L
T1 construct: host or cells: CHO-K1 (co-expressing Gα15)
T1 sequence (P08908 1-422): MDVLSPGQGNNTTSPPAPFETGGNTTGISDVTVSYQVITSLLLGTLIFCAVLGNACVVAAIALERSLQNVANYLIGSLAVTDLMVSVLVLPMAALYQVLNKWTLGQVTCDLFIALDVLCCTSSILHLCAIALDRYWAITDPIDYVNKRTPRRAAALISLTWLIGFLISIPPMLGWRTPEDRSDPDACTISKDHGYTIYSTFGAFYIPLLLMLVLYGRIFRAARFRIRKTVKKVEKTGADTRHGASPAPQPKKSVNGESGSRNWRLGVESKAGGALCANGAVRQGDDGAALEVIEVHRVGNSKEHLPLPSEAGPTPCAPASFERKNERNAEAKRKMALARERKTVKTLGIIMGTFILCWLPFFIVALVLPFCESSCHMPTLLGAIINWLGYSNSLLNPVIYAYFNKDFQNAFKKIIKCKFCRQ
Excerpt: (§1) CHO-K1/Gα15 (GenScript, M00257) (−5-HT1A) and CHO-K1/5-HT1A/Gα15 (GenScript, M00330) (+5-HT1A) cells lines were used. Briefly, CHO-K1/Gα15 is a control cell line that constitutively expresses Gα15 which is a promiscuous Gq protein. This control cell line lacks any transgene encoding 5-HT1A receptors, but still responds to forskolin; thus, cAMP response to forskolin should be the same regardless of whether or not 5-HT1A agonists are present. Conversely, CHO-K1/5-HT1A/Gα15 cells stably express 5-HT1A receptor in the CHO-K1 host background. […] In+5-HT1A cells, Gα15 may be recruited in place of Gαi/o, which could theoretically dampen cAMP response (Rojas and Fiedler 2016, Front Cell Neurosci 10: 272). […] Cells were maintained in complete growth media as recommended by supplier (GenScript) which is constituted as follows: Ham's F12 Nutrient mix (HAM's F12, GIBCO #11765-047) with 10% fetal bovine serum (FBS) (Thermo Scientific #12483020), 200 μg/ml zeocin (Thermo Scientific #R25005) and/or 100 μg/ml hygromycin (Thermo Scientific #10687010). The cells were cultured in a humidified incubator with 37° C. and 5% CO2. Cells maintenance was carried out as recommended by the cell supplier. Briefly, vials with cells were removed from the liquid nitrogen and thawed quickly in 37° C. water bath. Just before the cells were completely thawed the vial's outside was decontaminated by 70% ethanol spray. The cell suspension was then retrieved from the vial and added to warm (37° C.) complete growth media, and centrifuged at 1,000 rpm for 5 minutes. The supernatant was discarded, and the cell pellet was then resuspended in another 10 ml of complete growth media, and added to the 10 cm cell culture dish (Greiner Bio-One #664160). The media was changed every third day until the cells were about 90% confluent. The ˜90% confluent cells were then split 10:1 for maintenance or used for experiment.
As 5-HT1A activation inhibits cAMP formation, the agonist activity of test molecules on 5-HT1A was measured via the reduction in the levels of cAMP produced due to application of 4 μM forskolin. The change in intracellular cAMP levels due to the treatment of novel molecules was measured using cAMP-Glo Assay kit (Promega #V1501). Briefly, +5-HT1A cells were seeded on 1-6 columns and base −5-HT1A cells were seeded on columns 7-12 of the white walled clear bottom 96-well plate (Corning, #3903). Both cells were seeded at the density of 30,000 cells/well in 100 μl complete growth media and cultured 24 hrs in humidified incubator at 37° C. and 5% CO2. On the experiment day, the media of cells was replaced with serum/antibiotic free culture media. […] Reduced ATP caused reduced conversion of luciferin to oxyluciferin, conferring diminished luminescence as the result of 5-HT1A activation. […]

[2] = target: T2, 5-HT2A receptor (Homo sapiens, UniProt P28223); assay: [3H]ketanserin competition binding assay (Scintillation Proximity Assay) on membranes containing 5-HT2A; details: fixed 1 nM [3H]ketanserin; for competition binding curve result (binding / no binding): psilocin 30 pM to 10 μM, tryptophan 3 nM to 1 mM, FIGS. 14C, 14D
T2 construct: purchased PerkinElmer ES-313-M400UA
T2 sequence (P28223 whole entry): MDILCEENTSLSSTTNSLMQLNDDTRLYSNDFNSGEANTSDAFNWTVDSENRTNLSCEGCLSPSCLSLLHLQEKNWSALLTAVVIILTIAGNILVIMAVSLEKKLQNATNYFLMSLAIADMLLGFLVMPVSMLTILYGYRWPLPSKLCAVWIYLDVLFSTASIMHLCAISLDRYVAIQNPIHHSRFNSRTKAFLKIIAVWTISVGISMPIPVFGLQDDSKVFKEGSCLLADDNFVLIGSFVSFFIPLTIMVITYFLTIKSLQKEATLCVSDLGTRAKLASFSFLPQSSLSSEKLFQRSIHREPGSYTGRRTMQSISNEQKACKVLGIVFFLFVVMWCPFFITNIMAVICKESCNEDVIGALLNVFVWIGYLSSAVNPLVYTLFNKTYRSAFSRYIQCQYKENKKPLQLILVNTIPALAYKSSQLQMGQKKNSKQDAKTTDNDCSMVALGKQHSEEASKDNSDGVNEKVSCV
Excerpt: Evaluation of drug binding is an essential step to characterization of all drug-target interactions (Fang 2012, Exp Opin Drug Discov 7:969). The binding affinity of a drug to a target is traditionally viewed as an acceptable surrogate of its in vivo efficacy (Núñez et al., 2012, Drug Disc Today 17: 10). Competition assays, also called displacement or modulation binding assays, are a common approach to measure activity of a ligand at a target receptor (Flanagan 2016, Methods Cell Biol 132: 191). In these assays, standard radioligands acting either as agonists or antagonists are ascribed to specific receptors. In the case of G protein-coupled receptor 5-HT2A, [^3H]ketanserin is a well-established antagonist used routinely in competition assays to evaluate competitive activity of novel drug candidates at the 5-HT2A receptor (Maguire et al., 2012, Methods Mol Biol 897: 31). Thus, to evaluate activity of novel psilocybin derivatives at the 5-HT2A receptor, competition assays using [^3H]ketanserin were employed as follows. SPA beads (RPNQ0010), [^3H] ketanserin (NET1233025UC), membranes containing 5-HT2A (ES-313-M400UA), and isoplate-96 microplate (6005040) were all purchased from PerkinElmer. Radioactive binding assays were carried out using Scintillation Proximity Assay (SPA). […] After incubation, the samples were read on a MicroBeta 2 Microplate Counter (Perkin Elmer). […] Equilibrium binding constants for ketanserin (Kd) were determined from saturation binding curves using the ‘one-site saturation binding analysis’ method of GraphPad PRISM software (Version 9.2.0). […] Ki values were calculated from the competition displacement data using the competitive binding analysis from GraphPad PRISM software. […] Specific binding in counts per minute (cpm) was calculated by subtracting non-specific binding from total binding. Specific binding (pmol/mg) was calculated from pmol of [^3H]ketanserin bound per mg of protein in the assay. The Kd was calculated by fitting the data with the one-site binding model of PRISM software (version 9.2.0). […]

[3] = tested on: CHO-K1/Gα15 (−5-HT1A) cells; assay: cAMP-Glo assay in −5-HT1A control cells (CHO-K1/Gα15) with 4 μM forskolin; format: cell-based; details: for trend of % cAMP levels with decreasing dosage of test molecule: −5HT1A cell cultures, fixed 4 μM forskolin
Excerpt: as §1, with “The supernatant was discarded, and the cell pellet was then resuspended in another 10 ml of complete growth media, and added to the 10 cm cell culture dish (Greiner Bio-One #664160). The media was changed every third day until the cells were about 90% confluent. The ˜90% confluent cells were then split 10:1 for maintenance or used for experiment.” left out
As 5-HT1A activation inhibits cAMP formation, the agonist activity of test molecules on 5-HT1A was measured via the reduction in the levels of cAMP produced due to application of 4 μM forskolin. The change in intracellular cAMP levels due to the treatment of novel molecules was measured using cAMP-Glo Assay kit (Promega #V1501). […] Reduced ATP caused reduced conversion of luciferin to oxyluciferin, conferring diminished luminescence as the result of 5-HT1A activation. […]

Structure (SMILES) | cAMP / luminescence response to varying dosage of test molecule [1] | trend of % cAMP levels with decreasing dosage of test molecule [3] | competition binding curve result (binding / no binding) [2] | further results
CN(C)CCc1c[nH]c2ccccc12 [DMT, reference compound] | 5-HT1A activity |  |  | 
CC(=O)NCCc1c[nH]c2cc(CC=C(C)C)ccc12 [compound (IV)] | 5-HT1A modulation activity | not observed |  | specific binding of [3H]ketanserin in competition with test compound ([2]; unlabeled test compound 3 nM to 1 mM, competition not complete, FIGS. 14E, 14F): ~50%; modulation of the impact of serotonin on cAMP / luminescence ([1]; +5-HT1A cell cultures, fixed 4 μM forskolin and 10 uM serotonin, FIGS. 14M, 14N): modulated by the presence of compound (IV) in a concentration-dependent manner; modulation of the impact of serotonin on cAMP / luminescence ([3]; −5-HT1A cell cultures, fixed 4 μM forskolin and 10 uM serotonin, FIGS. 14M, 14N): not notable
CN(C)CCc1c[nH]c2cccc(O)c12 [psilocin] |  |  | binding | 
NCCc1c[nH]c2ccc(O)cc12 [serotonin, reference compound] | 5-HT1A binding activity | not observed |  | 
N[C@@H](Cc1c[nH]c2ccccc12)C(=O)O [tryptophan] |  |  | no binding | 
